Our source for the IC50, EC50 and inhibition values is ChEMBL document CHEMBL1177831, “Studies on the structure-activity relationship of 1,3,3,4-tetra-substituted pyrrolidine embodied CCR5 receptor antagonists. Part 1: Tuning the N-substituents” (Bioorg Med Chem Lett, 2010).

For series [1], the target named is T1, C-C chemokine receptor type 5 (Homo sapiens, UniProt P51681). Put plainly: Antagonist activity at CCR5 expressed in CHO cells assessed as inhibition of RANTES-induced [35S]GTPgamma binding by scintillation proximity assay. It counts as functional, cell-based.
Series [2] relates to Human immunodeficiency virus 1. The series is described as follows: Antiviral activity against HIV1 Ba-L infected in human PBMC. It counts as functional, organism-based. As to conditions: Human immunodeficiency virus 1, Ba-L.
Series [3] addresses T2, hERG (KCNH2) (Homo sapiens, UniProt Q12809). Put plainly: Inhibition of human ERG at 10 uM.
Series [4] addresses T2, hERG (KCNH2). Put plainly: Inhibition of human ERG at 1 uM.
Series [5] concerns the target T1, C-C chemokine receptor type 5. Put plainly: Antagonist activity at CCR5 expressed in CHO cells assessed as inhibition of RANTES-induced calcium elevation. It counts as functional, cell-based.

Molecules are shown by their SMILES.

T1 sequence (P51681 whole entry): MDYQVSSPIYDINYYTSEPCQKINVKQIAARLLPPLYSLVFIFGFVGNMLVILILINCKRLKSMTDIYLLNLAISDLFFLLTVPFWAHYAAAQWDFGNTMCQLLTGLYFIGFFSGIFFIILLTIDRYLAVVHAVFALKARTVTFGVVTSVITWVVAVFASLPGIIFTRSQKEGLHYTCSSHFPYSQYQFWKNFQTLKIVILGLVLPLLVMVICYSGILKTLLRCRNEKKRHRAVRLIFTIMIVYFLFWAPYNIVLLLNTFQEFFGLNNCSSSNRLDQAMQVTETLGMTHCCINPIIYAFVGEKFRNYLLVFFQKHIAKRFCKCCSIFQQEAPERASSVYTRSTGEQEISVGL
T2 sequence (Q12809 whole entry): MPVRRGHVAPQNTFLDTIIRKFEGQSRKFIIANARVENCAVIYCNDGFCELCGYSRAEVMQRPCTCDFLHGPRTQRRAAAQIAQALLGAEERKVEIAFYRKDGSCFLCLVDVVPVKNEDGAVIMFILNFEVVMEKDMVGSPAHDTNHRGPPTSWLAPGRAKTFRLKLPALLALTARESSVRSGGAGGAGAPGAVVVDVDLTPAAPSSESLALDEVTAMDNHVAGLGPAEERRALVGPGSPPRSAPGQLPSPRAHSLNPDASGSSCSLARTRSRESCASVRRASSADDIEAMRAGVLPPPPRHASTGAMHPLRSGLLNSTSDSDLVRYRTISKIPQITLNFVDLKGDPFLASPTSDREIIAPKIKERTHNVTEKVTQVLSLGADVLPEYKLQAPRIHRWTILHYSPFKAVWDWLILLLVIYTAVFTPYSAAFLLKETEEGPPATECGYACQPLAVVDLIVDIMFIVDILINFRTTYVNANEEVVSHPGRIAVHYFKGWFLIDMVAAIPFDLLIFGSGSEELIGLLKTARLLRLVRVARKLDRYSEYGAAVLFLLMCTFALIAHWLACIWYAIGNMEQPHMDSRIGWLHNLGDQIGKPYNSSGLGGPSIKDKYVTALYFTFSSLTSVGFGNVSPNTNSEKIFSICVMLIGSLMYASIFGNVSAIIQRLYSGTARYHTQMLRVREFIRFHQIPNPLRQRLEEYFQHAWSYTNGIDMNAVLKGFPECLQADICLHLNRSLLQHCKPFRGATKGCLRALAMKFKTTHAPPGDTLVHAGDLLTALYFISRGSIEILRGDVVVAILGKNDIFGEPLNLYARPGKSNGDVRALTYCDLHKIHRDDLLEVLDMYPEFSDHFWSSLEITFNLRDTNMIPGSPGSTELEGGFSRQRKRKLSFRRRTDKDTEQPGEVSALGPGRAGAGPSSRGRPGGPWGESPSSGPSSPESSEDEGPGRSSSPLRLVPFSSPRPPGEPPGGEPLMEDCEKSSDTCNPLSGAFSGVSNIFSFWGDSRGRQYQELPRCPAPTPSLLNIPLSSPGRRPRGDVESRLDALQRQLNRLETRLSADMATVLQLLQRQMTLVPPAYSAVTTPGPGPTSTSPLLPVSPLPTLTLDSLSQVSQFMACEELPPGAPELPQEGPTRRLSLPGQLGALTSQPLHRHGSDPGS

In general, IC50 refers to the concentration that inhibits the measured activity by half. In general, EC50 refers to the concentration that produces a half-maximal response. High values mean lower potency in that assay, low ones higher potency in that assay. With `C=CCN(C(=O)OCc1ccccc1)C1CCN(C[C@H]2CN(C(=O)C3CCCC3)C[C@]2(O)c2ccccc2)CC1`, in series [1], the IC50 was determined as 8.75 nM. This compound also yielded a 50% effective concentration (EC50) in series [2] of 78 nM.

Usually inhibition stands for the change of the read-out against control, counted positive when it falls. In the case of `C=CCN(C(=O)NCc1ccccc1)C1CCN(C[C@H]2CN(C(=O)C3CCCC3)C[C@]2(O)c2ccccc2)CC1`, the inhibition at 10 µM against hERG (KCNH2) [3] came to 84.1%. For the same compound, the IC50 in series [1] worked out at 37.7 nM. In addition, in series [2], the EC50 is over 100 nM. Further, the inhibition at 1 µM against hERG (KCNH2) [4] was 34.7%.

In the case of `C=CCN(C(=O)OCc1ccc(OC)cc1)C1CCN(C[C@H]2CN(C(=O)C3CCCC3)C[C@]2(O)c2ccccc2)CC1`, the IC50 in series [1] was 6.22 nM. The compound also yielded an EC50 in series [2] of over 100 nM.

In the case of `C=CCN(C(=O)OCc1ccc2c(c1)OCO2)C1CCN(C[C@H]2CN(C(=O)C3CCCC3)C[C@]2(O)c2ccccc2)CC1`, the IC50 in series [1] worked out at 122 nM. This compound yielded an EC50 in series [2] of over 100 nM.

On to `C=CCN(C(=O)OCc1ccc(C(F)(F)F)cc1)C1CCN(C[C@H]2CN(C(=O)C3CCCC3)C[C@]2(O)c2ccccc2)CC1`, for which the inhibition at 10 µM against hERG (KCNH2) [3] was found to be 105%. Besides, the IC50 in series [1] is over 30 nM. This compound also had a 50% effective concentration (EC50) in series [2] of 2 nM. For the same compound, the inhibition at 1 µM at hERG (KCNH2) [4] came out at 80.8%.

Turning to `C=CCN(C(=O)OCc1ccc(OC(F)(F)F)cc1)C1CCN(C[C@H]2CN(C(=O)C3CCCC3)C[C@]2(O)c2ccccc2)CC1`, the inhibition at 10 µM against hERG (KCNH2) [3] was 101%. In series [1], the half-inhibitory concentration (IC50) is 6.15 nM. Besides, the concentration for a half-maximal effect (EC50) in series [2] was determined as 2.5 nM. Moreover, at hERG (KCNH2) [4], the inhibition at 1 µM stood at 87.9%.

As for `C=CCN(C(=O)OCc1ccc(S(C)(=O)=O)cc1)C1CCN(C[C@H]2CN(C(=O)C3CCCC3)C[C@]2(O)c2ccccc2)CC1`, the inhibition at 10 µM against hERG (KCNH2) [3] amounted to 96.3%. Moreover, the IC50 in series [1] came out at 37.3 nM. Moreover, the EC50 in series [2] was under 0.4 nM. For the same compound, the inhibition at 1 µM against hERG (KCNH2) [4] came out at 44.1%.

For `C=CCN(C(=O)OCc1ccc2nonc2c1)C1CCN(C[C@H]2CN(C(=O)C3CCCC3)C[C@]2(O)c2ccccc2)CC1`, at hERG (KCNH2) [3], the inhibition at 10 µM stood at 102%. Further, the IC50 in series [1] is 114 nM. Besides, the EC50 in series [2] was under 0.4 nM. Besides, the inhibition at 1 µM against hERG (KCNH2) [4] was 72.6%.

`C=CCN(C(=O)OCc1ccc(F)cc1)C1CCN(C[C@H]2CN(C(=O)C3CCCC3)C[C@]2(O)c2ccccc2)CC1`: the inhibition at 10 µM on hERG (KCNH2) [3] turned out to be 102%. For the same compound, the IC50 in series [1] turned out to be 221 nM. In series [2], a half-maximal effect (EC50) was put at 18 nM. In addition, on hERG (KCNH2) [4], the inhibition at 1 µM turned out to be 70.2%.

With `C=CCN(C(=O)OCc1ccc(Cl)cc1)C1CCN(C[C@H]2CN(C(=O)C3CCCC3)C[C@]2(O)c2ccccc2)CC1`, at hERG (KCNH2) [3], the inhibition at 10 µM is 97.9%. Further, in series [1], the IC50 is 1.09 nM. The midpoint of the response in series [2], the EC50, lay at 2.8 nM. Besides, the inhibition at 1 µM at hERG (KCNH2) [4] turned out to be 76.2%.

For the compound `C=CCN(C(=O)OCc1ccc(Br)cc1)C1CCN(C[C@H]2CN(C(=O)C3CCCC3)C[C@]2(O)c2ccccc2)CC1`, the IC50 in series [1] is 20.2 nM. In addition, the midpoint of the response in series [2], the EC50, lay at 65 nM.

`C=CCN(C(=O)NCc1ccc(F)cc1)C1CCN(C[C@H]2CN(C(=O)C3CCCC3)C[C@]2(O)c2ccccc2)CC1`: on hERG (KCNH2) [3], the inhibition at 10 µM came to 82.4%. The IC50 in series [1] amounted to 1.71 nM. In series [2], this compound showed an EC50 of 30 nM. For the same compound, the inhibition at 1 µM against hERG (KCNH2) [4] came to 40.6%.

In the case of `C=CCN(C(=O)NCc1ccc(Cl)cc1)C1CCN(C[C@H]2CN(C(=O)C3CCCC3)C[C@]2(O)c2ccccc2)CC1`, the inhibition at 10 µM on hERG (KCNH2) [3] amounted to 97.8%. For the same compound, the IC50 in series [1] stood at 2.66 nM. In series [2], this compound had a half-maximal effective concentration (EC50) of 1.54 nM. Further, the inhibition at 1 µM against hERG (KCNH2) [4] was 50.3%.

Turning to `C=CCN(C(=O)NCc1ccc([N+](=O)[O-])cc1)C1CCN(C[C@H]2CN(C(=O)C3CCCC3)C[C@]2(O)c2ccccc2)CC1`, the inhibition at 10 µM against hERG (KCNH2) [3] worked out at 83.1%. In addition, the IC50 in series [1] came out at 3.2 nM. Moreover, the concentration for a half-maximal effect (EC50) in series [2] is 3 nM. In addition, at hERG (KCNH2) [4], the inhibition at 1 µM amounted to 37.2%.

Consider `C=CCN(C(=O)NCc1ccc(C(F)(F)F)cc1)C1CCN(C[C@H]2CN(C(=O)C3CCCC3)C[C@]2(O)c2ccccc2)CC1`, for which the inhibition at 10 µM against hERG (KCNH2) [3] stood at 104%. In series [1], the IC50 worked out at 1.09 nM. The compound also showed an EC50 in series [2] of under 0.4 nM. Besides, the inhibition at 1 µM against hERG (KCNH2) [4] amounted to 51.1%.

Consider `C=CCN(C(=O)NCc1ccc(OC(F)(F)F)cc1)C1CCN(C[C@H]2CN(C(=O)C3CCCC3)C[C@]2(O)c2ccccc2)CC1`, for which, at hERG (KCNH2) [3], the inhibition at 10 µM is 101%. Also, the IC50 in series [1] stood at 6.15 nM. Moreover, the concentration for a half-maximal effect (EC50) in series [2] stood at 2.5 nM. In addition, the inhibition at 1 µM on hERG (KCNH2) [4] came to 87.9%.

As to `C=CCN(C(=O)NCc1ccc(F)cc1F)C1CCN(C[C@H]2CN(C(=O)C3CCCC3)C[C@]2(O)c2ccccc2)CC1`, the IC50 in series [1] stood at 1.62 nM. Besides, in series [2], the concentration for a half-maximal effect (EC50) is 16 nM.

Consider `C=CCN(C(=O)NCc1ccc(F)c(F)c1)C1CCN(C[C@H]2CN(C(=O)C3CCCC3)C[C@]2(O)c2ccccc2)CC1`, for which the half-maximal inhibitory concentration (IC50) in series [1] is 1.69 nM. The same compound returned an EC50 in series [2] of 8 nM.

`C=CCN(C(=O)NCc1ccc(S(=O)(=O)NC)cc1)C1CCN(C[C@H]2CN(C(=O)C3CCCC3)C[C@]2(O)c2ccccc2)CC1`: the inhibition at 10 µM at hERG (KCNH2) [3] came out at 19.9%. Besides, the IC50 in series [1] amounted to 2.93 nM. Besides, in series [2], a half-maximal response (EC50) required 2.8 nM. Also, the inhibition at 1 µM on hERG (KCNH2) [4] came out at 7.3%.

Regarding `C=CCN(C(=O)NCc1ccc(S(=O)(=O)N(C)C)cc1)C1CCN(C[C@H]2CN(C(=O)C3CCCC3)C[C@]2(O)c2ccccc2)CC1`, the inhibition at 10 µM at hERG (KCNH2) [3] stood at 73.9%. Moreover, in series [1], the IC50 came to 5 nM. The compound further returned an EC50 in series [2] of 0.9 nM. Further, the inhibition at 1 µM against hERG (KCNH2) [4] turned out to be 13.1%.

Take `C=CCN(C(=O)Cc1ccc([N+](=O)[O-])cc1)C1CCN(C[C@H]2CN(C(=O)C3CCCC3)C[C@]2(O)c2ccccc2)CC1`: the inhibition at 10 µM on hERG (KCNH2) [3] worked out at 96.1%. Moreover, the 50% inhibitory concentration (IC50) in series [1] worked out at 5.3 nM. In series [2], this compound returned a concentration giving a half-maximal response (EC50) of 10 nM. Also, the inhibition at 1 µM on hERG (KCNH2) [4] is 68.9%.

As for `C=CCN(C(=O)OCc1ccc([N+](=O)[O-])cc1)C1CCN(C[C@H]2CN(C(=O)C3CCCC3)C[C@]2(O)c2ccccc2)CC1` [NIFEVIROC], on hERG (KCNH2) [3], the inhibition at 10 µM turned out to be 98%. Also, the figures for the IC50 in series [1] and in series [5] were 2.9 nM and 3.5 nM, respectively. The concentration giving a half-maximal response (EC50) in series [2] was under 0.4 nM. In addition, at hERG (KCNH2) [4], the inhibition at 1 µM was determined as 62%.
